Reference: patent US20250049904A1, “IMMUNOSTIMULATORY COMPOSITIONS” (VICTORIA LINK LIMITED, priority 2021, published 2025)
“Also recorded” adds a separate entry of the source.

Experiments:
[1] = system: tissue-resident memory T cells (TRM cells); assay: LPX-mRNA vaccination of mice i.v.; antigen-specific TRM, TEM and TCM cells in liver and spleen by flow cytometry; type: in vivo, C57BL/6 mice
Protocol: FIG. 1 provides a graphical representation showing that LPX-mRNA vaccines containing CI058 induce high levels of liver TRM cells. Liposomes were prepared with DOTMA and DOPE lipids and complexed with mRNA encoding chicken ovalbumin (OVA) to give vaccine LPX-mOVA. Additional vaccines were prepared by including either the prototypical NKT cell agonist α-GalCer (LPX-mOVA-α-GalCer) or the derivative CI058, which has BODIPY attached via an —S in the 6 position of the galactose (LPX-mOVA-CI058). Recipient C57BL/6 mice were transferred 50,000 naïve OVA-specific TCR-transgenic CD8+ T cells (OT-I cells) to enhance the precursor frequency of antigen-specific T cells to aid detection of vaccine-induced responses. A day later, groups of mice (n=5-6) were vaccinated intravenously (0.08 nmol) with the different vaccines; a naive mouse was left untreated. After 28 days, mice were killed and liver and spleen collected for analysis of induced T cell response by flow cytometry. Antigen-specific cells were identified using fluorescent MHC/peptide tetramers containing the targeted CD8^+ T cell epitope recognised by OT-I cells, and expression of Ly5.1, a congenic marker expressed by the OT-I mouse strain and not recipient C57BL/6 mice. The antigen-specific cells were further characterised as resident-memory T cells (TRM cells; CD8^+ Ly5.1^+ […] CD62L^low cells), effector memory T cells (TEM cells; CD8^+ Ly5.1^+ CD44^+ CD69^− CD62L^low cells) or central memory cells (TCM cells; CD8^+ Ly5.1^+ CD44^+ CD69^− CD62Lhigh cells). (A) Percentages of TRM, TEM and TCM OT-I cells in each treatment group in liver. Mean±SEM for each T cell subset are shown; statistical analysis relates only to pairwise comparisons of the percentage of TRM cells between the treatment groups. Black bars: TRM cells; white bars: TEM cells; grey bars: TCM cells. *P<0.05, **P<0.01, ***P<0.001, ****P<0.0001. One-way ANOVA. (B) Percentages of RM, TEM and TCM OT-I cells in each treatment group in spleen. (C) Mean number of TRM cells in liver for each treatment group (±SEM); dots represent individual mice. Black bars: TRM cells; white bars: TEM cells; grey bars: TCM cells. *P<0.05, **P<0.01, ***P<0.001, ****P<0.0001. One-way ANOVA.
Dose response of LPX-mOVA-α-GalCer versus LPX-mOVA-CI058 vaccines. Analysis was in C57BL/6 mice, without transfer of OT-I cells, so endogenous T cell responses were monitored on a normal T cell repertoire. Groups of 5 mice were used, and vaccines were administered intravenously. After 28 days, mice were killed and liver tissue collected for analysis of induced T cell response by flow cytometry. Antigen-specific cells were identified using fluorescent MHC/peptide tetramers, and further characterised as resident-memory T cells (TRM CD8^+ CD44^+ CD69^+ CXCR6^+ CD49a^+ CD62L^low cells), effector memory T cells (TEM CD8^+ CD44^+ CD69^− KLRG1^+ CXCR3^+ CD62L^low cells) or central memory cells (TCM CD8^+ CD44^+ CD69^− CD62L^high cells). At the same timer, NKT cells in the liver were also evaluated using fluorescent CD1d/α-GalCer tetramers. These were characterised for expression of different markers of activation, including PD-1 (only the latter is shown here). White circles: LPX-mOVA-α-GalCer; black circles: LPX-mOVA-CI058. (A) Graph showing mean number of TRM cells in liver for each treatment group (±SEM) overdose range. ****P<0.0001. (B) Graph showing mean level of expression of the “invariant” NKT cell-associated TCR for each treatment group (±SEM), defined as level of binding of fluorescent CD1d/α-GalCer tetramers and expressed as mean fluorescence index. ****P<0.0001 (C) Graph showing mean level of expression of PD-1 on NKT cells for each treatment group (±SEM). **P<0.01
To examine whether a prodrug mechanism is involved in enhanced TRM cell induction, LPX-mOVA-CI058 vaccines were compared to vaccines containing different NKT cell agonist prodrugs. […]

NKT cells in the liver = assay: NKT cell phenotype in the liver after LPX-mRNA vaccination (CD1d/α-GalCer tetramer binding, PD-1); type: in vivo, C57BL/6 mice; conditions: correlates with dose
Protocol: Dose response of LPX-mOVA-α-GalCer versus LPX-mOVA-CI058 vaccines. Analysis was in C57BL/6 mice, without transfer of OT-I cells, so endogenous T cell responses were monitored on a normal T cell repertoire. Groups of 5 mice were used, and vaccines were administered intravenously. After 28 days, mice were killed and liver tissue collected for analysis of induced T cell response by flow cytometry. […] At the same timer, NKT cells in the liver were also evaluated using fluorescent CD1d/α-GalCer tetramers. […] (B) Graph showing mean level of expression of the “invariant” NKT cell-associated TCR for each treatment group (±SEM), defined as level of binding of fluorescent CD1d/α-GalCer tetramers and expressed as mean fluorescence index. ****P<0.0001 (C) Graph showing mean level of expression of PD-1 on NKT cells for each treatment group (±SEM). **P<0.01
Lymphocytes were stained with monoclonal antibodies for: CD8a (53-6.7), Ly5.1 (A20), CD44 (IM7), CXCR6 (SA051D1), CX3CR1 (SA011F11), from BioLegend (Australian Biosearch, Karrinyup, WA. Australia), and CD62L (MEL-14) and CD69 (H1.2F3), from eBioscience (Jomar Life Research, Scoresby, VIC, Australia). […] Single-color positive control samples were used to adjust compensation and cells were analyzed by flow cytometry on a LSR Fortessa (BD Biosciences), or LSRII SORP using Flowjo software (Tree Star Inc.).

## CCCCCCCCCCCCCCCCCCCCCCCCCC(=O)N[C@@H](CO[C@H]1O[C@H](CSCC(=O)Nc2ccc(C3=C4C(C)=CC(C)=[N+]4[B-](F)(F)n4c(C)cc(C)c43)cc2)[C@H](O)[C@H](O)[C@H]1O)[C@H](O)[C@H](O)CCCCCCCCCCCCCC [CI058, (2S,3S,4R)-1-(6-Deoxy-6-((2-((4-(5,5-difluoro-1,3,7,9-tetramethyl-5H-4λ4,5λ4-dipyrrolo[1,2-c:2′,1′-f][1,3,2]diazaborinin-10-yl)phenyl)amino)-2-oxoethyl)thio)-α-D-galactopyranosyloxy)-2-hexacosanoylamino-3,4-octadecandiol]
[1]; LPX vaccines with vs without CI058
  overall level of T cell accumulation in liver: higher overall levels of T cell accumulation in liver
[1]; LPX-mOVA vaccines i.v., 28-30 days, compared to vaccines with α-GalCer or without agonist
  accumulation (population size) of TRM cells in liver: significantly larger populations of TRM cells in the liver tissue; also recorded: significantly enhanced populations of liver TRM cells; also recorded: also enhanced
[1]; LPX-mOVA vaccines i.v., OT-I cell transfer, 28 days after vaccination
  proportion of TRM cells among antigen-specific T cells in liver and spleen: enhanced in both tissues, although is consistently more pronounced in liver; also recorded: significantly biased towards TRM cells
[1]; LPX-mOVA-CI058 vs LPX-mOVA-α-GalCer, no OT-I transfer, day 28
  peak level of liver TRM cells in dose response: significantly higher than achieved with vaccines with α-GalCer
[1]; dose response, LPX-mOVA-CI058 vs LPX-mOVA-α-GalCer, no OT-I transfer, day 28
  lower dose giving parity in liver TRM cell levels with α-GalCer vaccine: 10 fold
[1]; endogenous T cell response, no T cell transfer, 30 days
  liver TRM cell induction, vaccine encoding malaria antigen RPL6: enhancing liver TRM cell induction
NKT cells in the liver; CD1d/α-GalCer tetramers
  expression of NKT cell-associated invariant TCR in liver: significantly reduced expression
NKT cells in the liver
  expression of PD-1 on liver NKT cells: significantly increased expression
